What follows are compounds tested against unphosphorylated-BTK kinase domain (UP-BTK), GST-tagged human BTK (389-659aa) (Homo sapiens (Human), UniProt Q06187) (assay: BTK kinase Lanthascreen binding assay). Details: negative log of the IC50 in molar; 60 minutes incubation, 50 nM Tracer 236.
Method: BTK Kinase Lanthascreen Binding Assay:
A BTK kinase lanthascreen binding assay monitors compound binding to unphosphorylated-BTK kinase domain (UP-BTK), by competing with a fluorescent labeled tracer. […] Data were analyzed using Xlfit™ version 5.3 from ID Business Solutions (Guildford), Microsoft Excel add-in. pIC50 refers to the negative log of the IC50 in molar.

unphosphorylated-BTK kinase domain (UP-BTK), GST-tagged human BTK (389-659aa), sequence (Q06187 389-659): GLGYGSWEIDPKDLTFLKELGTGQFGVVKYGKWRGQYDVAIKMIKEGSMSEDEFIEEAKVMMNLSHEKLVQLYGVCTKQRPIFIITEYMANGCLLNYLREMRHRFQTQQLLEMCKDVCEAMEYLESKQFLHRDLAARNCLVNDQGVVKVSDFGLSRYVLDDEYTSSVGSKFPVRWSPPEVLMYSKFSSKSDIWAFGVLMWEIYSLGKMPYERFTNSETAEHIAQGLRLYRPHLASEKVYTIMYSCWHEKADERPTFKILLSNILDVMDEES

SMILES	BTK_I_binding pIC50
CNC/C=C/C(=O)N1CCC[C@@H](NC(=O)c2sc3nccc4c3c2NC(=O)N4c2ccc(Oc3ccccc3)cc2C)C1 (single isomer, unassigned) [Example 23, (R,E)-5-(*S)-(2-Methyl-4-phenoxyphenyl)-N-(1-(4-(methylamino)but-2-enoyl)piperidin-3-yl)-4-oxo-4,5-dihydro-3H-1-thia-3,5,8-triazaacenaphthylene-2-carboxamide]	7.5
CNC/C=C/C(=O)N1CCC[C@@H](NC(=O)c2sc3nccc4c3c2NC(=O)N4c2ccc(Oc3ccccc3)cc2C)C1 (single isomer, unassigned) [Example 38, (R,E)-5-(*S)-(2-Methyl-4-phenoxyphenyl)-N-(1-(4-(methylamino)but-2-enoyl)piperidin-3-yl)-4-oxo-4,5-dihydro-3H-1-thia-3,5,8-triazaacenaphthylene-2-carboxamide]	7.3
C=CC(=O)N1CCC[C@H](NC(=O)c2sc3nccc4c3c2NC(=O)N4c2ccc(Oc3ccccc3)cc2C)C1 (single isomer, unassigned) [Example 44, (S)—N-(1-Acryloylpiperidin-3-yl)-5-(*S)-(2-methyl-4-phenoxyphenyl)-4-oxo-4,5-dihydro-3H-1-thia-3,5,8-triazaacenaphthylene-2-carboxamide]	7.4
Cc1cc(Oc2ccccc2)ccc1N1C(=O)Nc2c(C(=O)N[C@@H]3CCCN(C(=O)CN(C)C)C3)sc3nccc1c23 (single isomer, unassigned) [Example 56, (R)—N-(1-(2-(Dimethylamino)acetyl)piperidin-3-yl)-5-(*S)-(2-methyl-4-phenoxyphenyl)-4-oxo-4,5-dihydro-3H-1-thia-3,5,8-triazaacenaphthylene-2-carboxamide]	7.4
C=CC(=O)N1CCC[C@H](NC(=O)c2sc3nccc4c3c2NC(=O)N4c2ccc(Oc3ccccc3)cc2C)C1 (single isomer, unassigned) [Example 82, (S)—N-(1-acryloylpiperidin-3-yl)-5-(*S)-(2-methyl-4-phenoxyphenyl)-4-oxo-4,5-dihydro-3H-1-thia-3,5,8-triazaacenaphthylene-2-carboxamide]	7.2
C=CC(=O)N1CCC[C@@H](NC(=O)c2sc3nccc4c3c2NC(=O)N4c2ccc(Oc3ccccc3)cc2C)C1 (single isomer, unassigned) [Example 87, (R)—N-(1-Acryloylpiperidin-3-yl)-5-(*R)-(2-methyl-4-phenoxyphenyl)-4-oxo-4,5-dihydro-3H-1-thia-3,5,8-triazaacenaphthylene-2-carboxamide]	6.9
Cc1cc(Oc2ccccc2)ccc1N1C(=O)Nc2c(C(=O)N[C@H]3CCCOC3)sc3nccc1c23 (single isomer, unassigned) [Example 88, (S)-5-(*S)-(2-Methyl-4-phenoxyphenyl)-4-oxo-N-(tetrahydro-2H-pyran-3-yl)-4,5-dihydro-3H-1-thia-3,5,8-triazaacenaphthylene-2-carboxamide]	7.6
Cc1cc(Oc2ccccc2)ccc1N1C(=O)Nc2c(C(=O)N[C@@H]3CCCOC3)sc3nccc1c23 (single isomer, unassigned) [Example 96, (R)-5-(*S)-(2-Methyl-4-phenoxyphenyl)-4-oxo-N-(tetrahydro-2H-pyran-3-yl)-4,5-dihydro-3H-1-thia-3,5,8-triazaacenaphthylene-2-carboxamide]	7.8
Cc1cc(Oc2ccccc2)ccc1N1C(=O)Nc2c(C(=O)N[C@@H]3CCCN(C(=O)/C(C#N)=C/C(C)(C)N4CCOCC4)C3)sc3nccc1c23 (single isomer, unassigned) [Example 112, (R,E)-N-(1-(2-Cyano-4-methyl-4-morpholinopent-2-enoyl)piperidin-3-yl)-5-(*R)-(2-methyl-4-phenoxyphenyl)-4-oxo-4,5-dihydro-3H-1-thia-3,5,8-triazaacenaphthylene-2-carboxamide]	6.9
Cc1cc(Oc2ccccc2)ccc1N1C(=O)Nc2c(C(=O)N[C@@H]3CCCN(C)C3)sc3nccc1c23 (single isomer, unassigned) [Example 127, (R)-5-(*S)-(2-Methyl-4-phenoxyphenyl)-N-(1-methylpiperidin-3-yl)-4-oxo-4,5-dihydro-3H-1-thia-3,5,8-triazaacenaphthylene-2-carboxamide]	7.3
Cc1cc(Oc2ccccc2)ccc1N1C(=O)Nc2c(C(=O)N[C@@H]3CCN(C)C3)sc3nccc1c23 (single isomer, unassigned) [Example 147, (R)-5-(*S)-(2-Methyl-4-phenoxyphenyl)-N-(1-methylpyrrolidin-3-yl)-4-oxo-4,5-dihydro-3H-1-thia-3,5,8-triazaacenaphthylene-2-carboxamide]	7.4
C=CC(=O)N1CC[C@@H](NC(=O)c2sc3nccc4c3c2NC(=O)N4c2ccc(Oc3ccccc3)cc2C)C1 (single isomer, unassigned) [Example 169, (R)—N-(1-Acryloylpyrrolidin-3-yl)-5-(*R)-(2-methyl-4-phenoxyphenyl)-4-oxo-4,5-dihydro-3H-1-thia-3,5,8-triazaacenaphthylene-2-carboxamide]	6.4
Cc1cc(Oc2ccccc2)ccc1N1C(=O)Nc2c(C(=O)N[C@@H]3CCCN(C)C3)sc3nccc1c23 (single isomer, unassigned) [Example 180, (R)-5-(*R)-(2-Methyl-4-phenoxyphenyl)-N-(1-methylpiperidin-3-yl)-4-oxo-4,5-dihydro-3H-1-thia-3,5,8-triazaacenaphthylene-2-carboxamide]	6.0
N#C/C(=C\C1CC1)C(=O)N1CCC[C@@H](NC(=O)c2sc3nccc4c3c2NC(=O)N4c2c(Cl)ccc3c2OCO3)C1 (single isomer, unassigned) [Example 239]	7.4
Cc1cc(Oc2ccccc2)ccc1N1C(=O)Nc2c(C(=O)N[C@H]3CCCN(C)C3)sc3nccc1c23 (single isomer, unassigned) [Example 249, (S)-5-(*S)-(2-Methyl-4-phenoxyphenyl)-N-(1-methylpiperidin-3-yl)-4-oxo-4,5-dihydro-3H-1-thia-3,5,8-triazaacenaphthylene-2-carboxamide]	6.6
Cc1cc(Oc2ccccc2)ccc1N1C(=O)Nc2c(C(=O)N[C@H]3CCCOC3)sc3nccc1c23 (single isomer, unassigned) [Example 267, (S)-5-(*R)-(2-Methyl-4-phenoxyphenyl)-4-oxo-N-(tetrahydro-2H-pyran-3-yl)-4,5-dihydro-3H-1-thia-3,5,8-triazaacenaphthylene-2-carboxamide]	6.3

Same assay, conditions: unphosphorylated-BTK kinase domain; 60 minutes incubation; pIC50 = negative log of the IC50 in molar

SMILES	BTK_I_binding pIC50
Cc1cc(Oc2ccccc2)ccc1N1C(=O)Nc2c(C(=O)N[C@@H]3CCCN(C(=O)CN(C)C)C3)sc3nccc1c23 (single isomer, unassigned) [Example 287, (R)—N-(1-(2-(Dimethylamino)acetyl)piperidin-3-yl)-5-(*R)-(2-methyl-4-phenoxyphenyl)-4-oxo-4,5-dihydro-3H-1-thia-3,5,8-triazaacenaphthylene-2-carboxamide]	6.2
C=CC(=O)N1CCC[C@H](NC(=O)c2sc3nccc4c3c2NC(=O)N4c2ccc(Oc3ccccc3)cc2C)C1 (single isomer, unassigned) [Example 289, (S)—N-(1-Acryloylpiperidin-3-yl)-5-(*R)-(2-methyl-4-phenoxyphenyl)-4-oxo-4,5-dihydro-3H-1-thia-3,5,8-triazaacenaphthylene-2-carboxamide]	6.2
CNC/C=C/C(=O)N1CCC[C@@H](NC(=O)c2sc3nccc4c3c2NC(=O)N4c2ccc(Oc3ccccc3)cc2C)C1 (single isomer, unassigned) [Example 292, (R,E)-5-(*R)-(2-Methyl-4-phenoxyphenyl)-N-(1-(4-(methylamino)but-2-enoyl)piperidin-3-yl)-4-oxo-4,5-dihydro-3H-1-thia-3,5,8-triazaacenaphthylene-2-carboxamide]	6.1
Cc1cc(Oc2ccccc2)ccc1N1C(=O)Nc2c(C(=O)N[C@@H]3CCCNC3)sc3nccc1c23 (single isomer, unassigned) [Example 300, (R)-5-(*R)-(2-methyl-4-phenoxyphenyl)-4-oxo-N-(piperidin-3-yl)-4,5-dihydro-3H-1-thia-3,5,8-triazaacenaphthylene-2-carboxamide]	6.0
Cc1cc(Oc2ccccc2)ccc1N1C(=O)Nc2c(C(=O)N[C@@H]3CCCOC3)sc3nccc1c23 (single isomer, unassigned) [Example 307, (R)-5-(*R)-(2-Methyl-4-phenoxyphenyl)-4-oxo-N-(tetrahydro-2H-pyran-3-yl)-4,5-dihydro-3H-1-thia-3,5,8-triazaacenaphthylene-2-carboxamide]	6.0
C=CC(=O)N1CCC[C@@H](NC(=O)c2sc3nccc4c3c2NC(=O)N4c2c(Cl)ccc3c2OCO3)C1 (single isomer, unassigned) [Example 321, (R)—N-(1-Acryloylpiperidin-3-yl)-5-(*R)-(5-chlorobenzo[d][1,3]dioxol-4-yl)-4-oxo-4,5-dihydro-3H-1-thia-3,5,8-triazaacenaphthylene-2-carboxamide]	7.1
Cc1cc(Oc2ccccc2)ccc1N1C(=O)Nc2c(C(=O)N[C@@H]3CCCN(C#N)C3)sc3nccc1c23 (single isomer, unassigned) [Example 329, (R)—N-(1-Cyanopiperidin-3-yl)-5-(*R)-(2-methyl-4-phenoxyphenyl)-4-oxo-4,5-dihydro-3H-1-thia-3,5,8-triazaacenaphthylene-2-carboxamide]	5.7
Cc1cc(Oc2ccccc2)ccc1N1C(=O)Nc2c(C(=O)N[C@H]3CCCN(C)C3)sc3nccc1c23 (single isomer, unassigned) [Example 339, (S)-5-(*R)-(2-Methyl-4-phenoxyphenyl)-N-(1-methylpiperidin-3-yl)-4-oxo-4,5-dihydro-3H-1-thia-3,5,8-triazaacenaphthylene-2-carboxamide]	5.4

Source: US10822348B2, “Inhibitors of Bruton's tyrosine kinase and methods of their use” (JANSSEN PHARMACEUTICA NV, priority 2015, dated 2020)
